Experimental findings from publication PMC8286840, “Identifying SARS-CoV-2 antiviral compounds by screening for small molecule inhibitors of Nsp3 papain-like protease” (Biochemical Journal, 2021) are described below.

Test [1] has as its target T1, SARS-CoV-2 PLpro (nsp3 1564–1878) (Severe acute respiratory syndrome coronavirus 2, UniProt P0DTD1). Kind of test: biochemical. The arrangement: FRET-quenched peptide (Pro3) cleavage by PLpro, 10 min pre-incubation, slope over 20 min, normalised to no-compound control. Particulars: high concentration screen.
For test [2], the target named is T1, SARS-CoV-2 PLpro (nsp3 1564–1878). Briefly: biochemical. The arrangement: FRET-quenched peptide (Pro3) cleavage by PLpro, 10 min pre-incubation, slope over 20 min, normalised to no-compound control. Particulars: low concentration screen.
Where [3] appears, read: Well no.=6757, read-out: % of control remaining.
Where [4] appears, read: Well no.=2026, read-out: % of control remaining.
[5] abbreviates: Well no.=7716, read-out: % of control remaining.
Setting [6] is: Well no.=2032, read-out: % of control remaining.
Where [7] appears, read: Well no.=1570, read-out: % of control remaining.
Where [8] appears, read: Well no.=3188, read-out: % of control remaining.
Setting [9] is: Well no.=5561, read-out: % of control remaining.
Setting [10] is: Well no.=6689, read-out: % of control remaining.
The mark [11] stands for this setting: Well no.=6613, read-out: % of control remaining.
Setting [12] is: Well no.=4668, read-out: % of control remaining.
The mark [13] stands for this setting: Well no.=6700, read-out: % of control remaining.
[14] abbreviates: Well no.=1364, read-out: % of control remaining.
[15] abbreviates: Well no.=6836, read-out: % of control remaining.
Where [16] appears, read: Well no.=5584, read-out: % of control remaining.
[17] abbreviates: Well no.=6835, read-out: % of control remaining.
The mark [18] stands for this setting: Well no.=4390, read-out: % of control remaining.
[19] abbreviates: Well no.=4255, read-out: % of control remaining.
Where [20] appears, read: Well no.=4930, read-out: % of control remaining.
[21] abbreviates: Well no.=5197, read-out: % of control remaining.
Where [22] appears, read: read-out: % of control remaining, Well no.=4642.

Counter-ions that a name gives are not always drawn. Like-named read-outs stand apart in the source and are kept apart here.

Consider `C[N+](C)(C)CCOC(N)=O` [Carbamoylcholine (chloride)], for which the remaining activity at 3.75 µM in test [1] (setting [3]) turned out to be 97.3%. The remaining activity at 1.25 µM in test [2] (setting [3]) was found to be 99.9%.
`CCn1cc(C(=O)O)c(=O)c2cc(F)c(N3CCNCC3)nc21` [Enoxacin]: in test [1] (setting [4]), the remaining activity at 3.75 µM was 106%. The remaining activity at 1.25 µM in test [2] (setting [4]) is 103%.
Consider `CCCCCCCC/C=C/CCCCCCCC(=O)OC[C@H]1O[C@@H](n2ccc(N)nc2=O)[C@@H](O)[C@@H]1O` [Elacytarabine], for which, in test [1] (setting [5]), the remaining activity at 3.75 µM was 110%. For the same compound, the remaining activity at 1.25 µM in test [2] (setting [5]) amounted to 105%.
Consider `COc1ccc2[nH]c([S@@+]([O-])Cc3ncc(C)c(OC)c3C)nc2c1` [Esomeprazole], for which the remaining activity at 3.75 µM in test [1] (setting [6]) was 106%. Further, the remaining activity at 1.25 µM in test [2] (setting [6]) was found to be 108%.
Consider `CO[C@H]1C[C@H](O[C@H]2[C@H](C)[C@@H](O[C@@H]3O[C@H](C)C[C@H](N(C)C)[C@H]3OC(C)=O)[C@@H](C)C[C@@]3(CO3)C(=O)[C@H](C)[C@@H](OC(C)=O)[C@@H](C)[C@@H](C)OC(=O)[C@@H]2C)O[C@@H](C)[C@@H]1OC(C)=O` [Troleandomycin], for which the remaining activity at 3.75 µM in test [1] (setting [7]) came out at 99.5%; in test [1] (setting [8]), 103%. The values for the remaining activity at 1.25 µM in test [2] (setting [7]) and in test [2] (setting [8]) were 96.7% and 106%, respectively.
As for `COc1ccc(S(=O)(=O)Nc2cc(Cl)cc(Cl)c2OC)cc1N1CCNCC1` [N-(3,5-dichloro-2-methoxyphenyl)-4-methoxy-3-(piperazin-1-yl)benzenesulfonamide hydrochloride], in test [1] (setting [9]), the remaining activity at 3.75 µM is 103%. Further, the remaining activity at 1.25 µM in test [2] (setting [9]) was found to be 97.1%.
As to `O=C(O)c1ccc(CO)o1` [5-Hydroxymethyl-2-furancarboxylic acid], the remaining activity at 3.75 µM in test [1] (setting [10]) was determined as 98.1%. The remaining activity at 1.25 µM in test [2] (setting [10]) is 97.9%.
With `COc1ccc2c(c1OC)C(=O)O[C@@H]2[C@H]1c2c(cc3c(c2OC)OCO3)CCN1C` [Noscapine], the remaining activity at 3.75 µM in test [1] (setting [11]) stood at 106%. Also, in test [2] (setting [11]), the remaining activity at 1.25 µM is 106%.
In the case of `C[C@@H]1C[C@H]2[C@@H]3CCC4=CC(=O)C=C[C@]4(C)[C@@]3(Cl)[C@@H](O)C[C@]2(C)[C@@]1(OC(=O)c1ccco1)C(=O)CCl` [Mometasone furoate], the remaining activity at 3.75 µM in test [1] (setting [12]) was 103%; in test [1] (setting [13]) it was 89.6%. Besides, the remaining activity at 1.25 µM in test [2] (setting [12]) is 103%; in test [2] (setting [13]) it was 92.3%.
Turning to `CCN1CCC[C@H]1CNC(=O)c1cc(S(N)(=O)=O)ccc1OC` [(-)-Sulpiride], in test [1] (setting [14]), the remaining activity at 3.75 µM is 99.2%. Further, the remaining activity at 1.25 µM in test [2] (setting [14]) is 101%.
As for `Cc1ncc(CNC(=O)N(CCCl)N=O)c(N)n1` [Nimustine (hydrochloride)], in test [1] (setting [15]), the remaining activity at 3.75 µM came out at 95.5%. Further, the remaining activity at 1.25 µM in test [2] (setting [15]) is 95.8%.
As to `CN(C)C(=S)NN=C(c1ccccn1)c1ccccn1` [Dp44mT], the remaining activity at 3.75 µM in test [1] (setting [16]) is 101%. In addition, in test [2] (setting [16]), the remaining activity at 1.25 µM is 99.1%.
For the compound `CC(CC(=O)O)CC(=O)O` [3-Methylglutaric acid], the remaining activity at 3.75 µM in test [1] (setting [17]) stood at 99.3%. Further, the remaining activity at 1.25 µM in test [2] (setting [17]) came out at 100%.
For `CCCCCCCCCCCCCCCC(=O)C(F)(F)F` [PACOCF3], the remaining activity at 3.75 µM in test [1] (setting [18]) turned out to be 100%. For the same compound, the remaining activity at 1.25 µM in test [2] (setting [18]) was 102%.
For the compound `CCCCCCCCCCCCC/C=C/[C@@H](O)[C@H](CO)NC(=O)CCCCCCC` [C8 Ceramide], in test [1] (setting [19]), the remaining activity at 3.75 µM was 99.1%. For the same compound, the remaining activity at 1.25 µM in test [2] (setting [19]) is 100%.
For `Cn1cc(-c2ccc3ncc(Cc4ccc5ncccc5c4)n3n2)cn1` [NVP-BVU972], the remaining activity at 3.75 µM in test [1] (setting [20]) came to 92.3%. Also, the remaining activity at 1.25 µM in test [2] (setting [20]) was found to be 98.1%.
As for `C[C@@H](O)[C@H]1C(=O)N2C(C(=O)[O-])=C(SC3Cn4cnc[n+]4C3)[C@H](C)[C@H]12` (stereo partly shown) [Biapenem], in test [1] (setting [21]), the remaining activity at 3.75 µM is 100%. For the same compound, the remaining activity at 1.25 µM in test [2] (setting [21]) was 99.1%.
`CC(C)[C@]12O[C@H]1[C@@H]1O[C@]13[C@]1(O[C@H]1C[C@H]1C4=C(CC[C@@]13C)C(=O)OC4)[C@@H]2O` [Triptolide]: the remaining activity at 3.75 µM in test [1] (setting [22]) was found to be 98.1%. Further, the remaining activity at 1.25 µM in test [2] (setting [22]) was determined as 99.8%.
